Series [1] concerns the target T1, Collagenase 3 (Homo sapiens, UniProt P45452). In words: Inhibition of MMP13.
A short description of series [2]: Chemical stability assessed as half life in phosphate buffer saline at pH 7.2. To be noted: phosphate buffered saline. It counts as physicochemical.
Series [3] can be described thus: Cmax in rat at 800 mg/kg, bid. It counts as ADME, organism-based. To be noted: in vivo. Also on record: dose 800 mg/kg.
Series [4] concerns Rattus norvegicus. The experiment in a line: Toxicity in rat assessed as induction of fibroplasia at 300 mg/kg, bid. In kind it is organism-based. Also on record: dose 300 mg/kg. To be noted: in vivo.
A short description of series [5]: Cmax in rat at 300 mg/kg, bid. In kind it is ADME, organism-based. Also on record: dose 300 mg/kg. Particulars: in vivo.
Series [6] addresses T1, Collagenase 3. The experiment in a line: Inhibition of MMP13-mediated bovine nasal cartilage degradation assessed as hydroxyprole release. In kind it is functional, tissue-based.
For series [7], the system named is Hamster. In words: Inhibition of human MMP13-induced cartilage damage in hamster at 10 mg/kg, po. In kind it is functional. Particulars: Cricetinae.
Series [8] deals with Rattus norvegicus. In words: Toxicity in rat assessed as induction of fibroplasia at 30 mg/kg, bid. In kind it is organism-based. Details: dose 30 mg/kg. To be noted: in vivo.
Series [9] can be described thus: plasma Clearance in rat. It counts as ADME, organism-based.
Series [10] relates to Rattus norvegicus. In words: Toxicity in rat assessed as induction of fibroplasia at 800 mg/kg, bid. In kind it is organism-based. Also on record: dose 800 mg/kg. To be noted: in vivo.
Series [11] is described as follows: Volume of distribution at steady state in rat. Particulars: in vivo, read-out: Vdss. In kind it is ADME, organism-based.
Series [12] deals with Rattus norvegicus. In words: Toxicity in rat assessed as induction of fibroplasia at 100 mg/kg, bid. To be noted: in vivo. Details: dose 100 mg/kg. It counts as organism-based.
Series [13] can be described thus: Half life in rat. In kind it is ADME, organism-based. To be noted: in vivo.

Molecules are shown by their SMILES. pIC50: −log10 of the molar value.

With `CCOCCC1(Oc2ccc(Oc3ccc(-c4nc(-c5cccc(F)c5)co4)cc3)cc2)C(=O)NC(=O)NC1=O`, the pIC50 – broadly, the negative decadic logarithm of the IC50, by convention in mol/L – in series [1] was 9.46.
Turning to `CCOCCC1(Oc2ccc(Oc3ccc(-c4nc(-c5cccc(C#N)c5)co4)cc3)cc2)C(=O)NC(=O)NC1=O`, the pIC50 in series [1] was 9.28.
Same read-out and setting: the same measure for `CCOCCC1(Oc2ccc(Oc3ccc(-c4nc(-c5ccc(C#N)cc5)co4)cc3)cc2)C(=O)NC(=O)NC1=O`: 9.37; for `CCOCCC1(Oc2ccc(Oc3ccc(F)cc3)cc2)C(=O)NC(=O)NC1=O`: 9.22; for `CCOCCC1(Oc2ccc(Oc3ccc(-c4nc5ccccc5[nH]4)cc3)cc2)C(=O)NC(=O)NC1=O`: 9.31.
On to `O=C1NC(=O)C2(CCCC(=O)N2c2ccc(Oc3ccc(F)cc3)nc2)C(=O)N1`, for which the pIC50 in series [1] is 7.93.
On the same count and under the same terms, the same measure for `O=C1NC(=O)C2(CNC(=O)N2c2ccc(Oc3ccc(F)cc3)nc2)C(=O)N1`: 7.82; for `CCOCCC1(Oc2ccc(Oc3ccc(-c4nc5ccc(Cl)cc5[nH]4)cc3)cc2)C(=O)NC(=O)NC1=O`: 9.02; for `O=C1NC(=O)C2(CCCN2c2ccc(Oc3ccc(-c4nc5ccc(Cl)cc5[nH]4)cc3)nc2)C(=O)N1`: 10.00.
Same read-out and setting: the same measure for `CN1CC2(C(=O)NC(=O)NC2=O)N(c2ccc(Oc3ccc(F)cc3)nc2)C1=O`: 7.92.
`O=C1NC(=O)C2(CCC(=O)N2c2ccc(Oc3ccc(F)cc3)nc2)C(=O)N1`: the pIC50 in series [1] is 8.46. Moreover, the half-life (as a rule, the time in which the quantity being followed falls by half) in series [2] is 91.2 h.
The molecule `O=C1NC(=O)C2(CCS(=O)(=O)N2c2ccc(Oc3ccc(F)cc3)nc2)C(=O)N1` gave a negative-log IC50 (pIC50) in series [1] of 6.86. Moreover, the half-life in series [2] is 26.4 h.
In series [1], `O=C1NC(=O)C2(CCCN2c2ccc(Oc3ccc(-c4nc(-c5ccccc5F)co4)cc3)nc2)C(=O)N1` gave a pIC50 of 9.80.
In the case of `CCOCCC1(Oc2ccc(Oc3ccc(-c4nc5ccc(F)cc5[nH]4)cc3)cc2)C(=O)NC(=O)NC1=O`, in series [1], the negative-log IC50 (pIC50) was 9.40.
`O=C1NC(=O)C2(CCCN2c2ccc(Oc3ccc(-c4nc(-c5cccc(F)c5)co4)cc3)nc2)C(=O)N1`: the pIC50 in [1] is 10.05.
The same measure, in the same setting: with `O=C1NC(=O)C2(CCCN2c2ccc(Oc3ccc(-c4nc5ccc(F)cc5[nH]4)cc3)nc2)C(=O)N1` the figure was 10.10.
With `N#Cc1ccc(-c2coc(-c3ccc(Oc4ccc(N5CCCC56C(=O)NC(=O)NC6=O)cn4)cc3)n2)cc1`, the pIC50 in series [1] is 10.30.
Consider `N#Cc1cccc(-c2coc(-c3ccc(Oc4ccc(N5CCCC56C(=O)NC(=O)NC6=O)cn4)cc3)n2)c1`, for which the pIC50 in series [1] was 9.96.
On to `CCOCCC1(Oc2ccc(Oc3ccc(F)cc3)nc2)C(=O)NC(=O)NC1=O`, for which the pIC50 in series [1] was 8.05.
With `CCOCCC1(Nc2ccc(Oc3ccc(F)cc3)nc2)C(=O)NC(=O)NC1=O`, in [1], the pIC50 was 8.54.
Regarding `O=C1NC(=O)C2(CCCN2c2ccc(Oc3ccc(-c4nc(-c5ccc(F)cc5)co4)cc3)nc2)C(=O)N1`, the Cmax (as a rule, the highest concentration seen after dosing) in [3] was found to be 52 µg/mL; in [5] it was 63 µg/mL. In addition, the Activity entry in series [4] is on record as “Toxic”; in series [8] it was “Non-toxic”; in [10], “Toxic”; in [12] it was “Non-toxic”. The pIC50 was 9.92 in series [1] and 7.92 in [6]. Moreover, the inhibition in vivo (as a rule, the drop in the measured response relative to a control, in per cent) at 10 mg/kg in series [7] is more than 80%. Moreover, the clearance (usually the rate of elimination divided by the concentration) in series [9] was 3.9 mL/min/kg. Besides, in [11], the Vd came to 1.3 L/kg. The molecule also showed a half-life in series [13] of 4.5 h.
In turn, `O=C1NC(=O)C2(CCCN2c2ccc(Oc3ccc(-c4nc5ccccc5[nH]4)cc3)nc2)C(=O)N1` gave a pIC50 in series [1] of 9.96.
In series [1], `O=C1NC(=O)C2(CCCN2c2ccc(Oc3ccc(F)cc3)nc2)C(=O)N1` gave a negative logarithm of the IC50 (pIC50) of 8.80.
As for `CC1(C)CC2(C(=O)NC(=O)NC2=O)N(c2ccc(Oc3ccc(F)cc3)nc2)C1=O`, in [1], the pIC50 was 8.13. The half-life in series [2] was 67.2 h.
In the same order, the values of `O=C1NC(=O)C2(CCCN2c2ccc(Oc3ccc(Br)cc3)nc2)C(=O)N1` are 9.22 and more than 24000 h.

These data come from ChEMBL document CHEMBL1140560, “Potent, selective spiropyrrolidine pyrimidinetrione inhibitors of MMP-13” (Bioorg Med Chem Lett, 2007).
